Source: patent US20260193264A1, “BENZOYPARAZINE PYRAZINES AND THEIR USES” (FOGHORN THERAPEUTICS INC., priority 2022, published 2026)
Like-named read-outs stand apart in the source and are kept apart here.

Tests used:
[1] = target: T1, HiBit-BRG1 fusion protein in stable HeLa cell line expressing HiBit-BRG1 and LgBit (Homo sapiens, UniProt P51532); test: HiBiT-BRG1 cell-based degradation assay (Nano-Glo HiBiT, 24 h); conditions: HeLa HiBit-BRG1/LgBit cells; for DC50: read-out: BRMG1 HiBit Degradation IC50; for Dmax: top dose 30 μM, read-out: BRG1 HiBit Degradation Maximum (%)
T1 construct: expressed in transfected cells
Procedure: Procedure: A stable HeLa cell line expressing HiBiT-BRM was generated. On day 0, 5000 cells were seeded in 40 μL of media into each well of 384-well cell culture plates. […] Subsequently plates were incubated for 24 h in a standard tissue culture incubator and equilibrated at room temperature for 15 minutes. Nano-Glo HiBiT Lytic Detection System (Promega N3050) reagent was freshly prepared and 20 ul was added to each well. Upon addition of this LgBit-containing reagent, the HiBiT and LgBiT proteins associate to form the luminescent NanoBiT luciferase. The plates were shaken for 10 minutes at room temperature and the bioluminescence read using an EnVision plate reader (PerkinElmer). For measurement of BRG1 degradation, a stable HeLa cell line expressing HiBit-BRG1 and LgBit was generated. The same protocol as above was then followed. The degradation % was calculated using the following formula: % degradation=100%−100%×(Lumsample−LumLC)/(LumHC−LumLC). DMSO treated cells are employed as High Control (HC) and 2 μM of a known BRM/BRG1 degrader standard treated cells are employed as Low Control (LC).

[2] = target: T2, HiBiT-BRM fusion protein in stable HeLa cell line (Homo sapiens, UniProt P51531); test: HiBiT-BRM cell-based degradation assay (Nano-Glo HiBiT Lytic Detection, 24 h); design: DC50: scale not given here; conditions: HeLa HiBiT-BRM cells; for DC50: read-out: BRM HiBit Degradation IC50; for BRM HiBit Degradation Maximum (%): top dose 30 μM
T2 construct: expressed in transfected cells
Procedure: Procedure: A stable HeLa cell line expressing HiBiT-BRM was generated. On day 0, 5000 cells were seeded in 40 μL of media into each well of 384-well cell culture plates. On day 1, cells were treated with 120 nL DMSO or 120 nL of 3-fold serially DMSO-diluted compounds (10 points in duplicate with 30 μM as final top dose). Subsequently plates were incubated for 24 h in a standard tissue culture incubator and equilibrated at room temperature for 15 minutes. Nano-Glo HiBiT Lytic Detection System (Promega N3050) reagent was freshly prepared and 20 ul was added to each well. Upon addition of this LgBit-containing reagent, the HiBiT and LgBiT proteins associate to form the luminescent NanoBiT luciferase. The plates were shaken for 10 minutes at room temperature and the bioluminescence read using an EnVision plate reader (PerkinElmer).
The degradation % was calculated using the following formula: % degradation=100%−100%×(Lumsample−LumLC)/(LumHC−LumLC). DMSO treated cells are employed as High Control (HC) and 2 μM of a known BRM/BRG1 degrader standard treated cells are employed as Low Control (LC).

T2 sequence (P51531 whole entry, the tested form may be a part): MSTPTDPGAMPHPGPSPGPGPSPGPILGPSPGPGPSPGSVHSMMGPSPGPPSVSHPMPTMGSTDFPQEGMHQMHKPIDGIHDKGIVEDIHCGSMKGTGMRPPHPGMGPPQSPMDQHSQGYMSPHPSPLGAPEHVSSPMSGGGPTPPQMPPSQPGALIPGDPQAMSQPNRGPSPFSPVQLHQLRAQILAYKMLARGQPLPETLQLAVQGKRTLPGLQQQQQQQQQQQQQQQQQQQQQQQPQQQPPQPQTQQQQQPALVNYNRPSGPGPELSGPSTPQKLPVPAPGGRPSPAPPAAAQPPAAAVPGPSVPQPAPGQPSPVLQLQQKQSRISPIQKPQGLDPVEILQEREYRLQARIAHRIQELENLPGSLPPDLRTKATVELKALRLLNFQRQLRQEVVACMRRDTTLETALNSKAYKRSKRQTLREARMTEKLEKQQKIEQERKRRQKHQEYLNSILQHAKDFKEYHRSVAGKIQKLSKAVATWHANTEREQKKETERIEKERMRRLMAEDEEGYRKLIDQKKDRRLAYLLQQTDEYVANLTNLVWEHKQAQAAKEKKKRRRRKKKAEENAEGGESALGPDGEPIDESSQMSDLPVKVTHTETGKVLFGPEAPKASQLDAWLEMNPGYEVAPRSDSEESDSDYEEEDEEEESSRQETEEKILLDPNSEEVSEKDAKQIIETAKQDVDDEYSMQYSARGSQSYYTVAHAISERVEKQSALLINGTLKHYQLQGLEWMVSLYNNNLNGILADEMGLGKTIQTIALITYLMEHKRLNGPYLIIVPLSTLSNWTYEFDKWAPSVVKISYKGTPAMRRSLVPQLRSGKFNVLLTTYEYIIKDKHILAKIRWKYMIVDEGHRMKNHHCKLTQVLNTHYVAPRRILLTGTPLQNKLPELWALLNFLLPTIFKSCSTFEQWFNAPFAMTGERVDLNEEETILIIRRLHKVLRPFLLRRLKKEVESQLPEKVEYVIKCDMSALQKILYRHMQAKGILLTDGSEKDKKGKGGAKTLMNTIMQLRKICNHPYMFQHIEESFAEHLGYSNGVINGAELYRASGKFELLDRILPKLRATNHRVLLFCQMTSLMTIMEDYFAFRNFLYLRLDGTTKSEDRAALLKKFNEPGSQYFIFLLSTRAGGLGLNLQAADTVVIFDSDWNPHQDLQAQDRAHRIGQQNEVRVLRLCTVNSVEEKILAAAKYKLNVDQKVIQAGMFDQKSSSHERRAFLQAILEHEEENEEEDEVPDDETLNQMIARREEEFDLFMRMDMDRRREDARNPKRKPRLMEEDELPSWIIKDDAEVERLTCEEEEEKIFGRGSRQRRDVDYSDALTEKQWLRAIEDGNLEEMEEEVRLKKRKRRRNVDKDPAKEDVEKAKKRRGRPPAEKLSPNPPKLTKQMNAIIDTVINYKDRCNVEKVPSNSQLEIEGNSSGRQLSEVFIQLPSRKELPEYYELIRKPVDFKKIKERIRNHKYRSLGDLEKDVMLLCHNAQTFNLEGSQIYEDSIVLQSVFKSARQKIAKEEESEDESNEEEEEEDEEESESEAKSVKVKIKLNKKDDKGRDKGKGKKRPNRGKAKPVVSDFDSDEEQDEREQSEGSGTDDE
T1 sequence (P51532 whole entry, the tested form may be a part): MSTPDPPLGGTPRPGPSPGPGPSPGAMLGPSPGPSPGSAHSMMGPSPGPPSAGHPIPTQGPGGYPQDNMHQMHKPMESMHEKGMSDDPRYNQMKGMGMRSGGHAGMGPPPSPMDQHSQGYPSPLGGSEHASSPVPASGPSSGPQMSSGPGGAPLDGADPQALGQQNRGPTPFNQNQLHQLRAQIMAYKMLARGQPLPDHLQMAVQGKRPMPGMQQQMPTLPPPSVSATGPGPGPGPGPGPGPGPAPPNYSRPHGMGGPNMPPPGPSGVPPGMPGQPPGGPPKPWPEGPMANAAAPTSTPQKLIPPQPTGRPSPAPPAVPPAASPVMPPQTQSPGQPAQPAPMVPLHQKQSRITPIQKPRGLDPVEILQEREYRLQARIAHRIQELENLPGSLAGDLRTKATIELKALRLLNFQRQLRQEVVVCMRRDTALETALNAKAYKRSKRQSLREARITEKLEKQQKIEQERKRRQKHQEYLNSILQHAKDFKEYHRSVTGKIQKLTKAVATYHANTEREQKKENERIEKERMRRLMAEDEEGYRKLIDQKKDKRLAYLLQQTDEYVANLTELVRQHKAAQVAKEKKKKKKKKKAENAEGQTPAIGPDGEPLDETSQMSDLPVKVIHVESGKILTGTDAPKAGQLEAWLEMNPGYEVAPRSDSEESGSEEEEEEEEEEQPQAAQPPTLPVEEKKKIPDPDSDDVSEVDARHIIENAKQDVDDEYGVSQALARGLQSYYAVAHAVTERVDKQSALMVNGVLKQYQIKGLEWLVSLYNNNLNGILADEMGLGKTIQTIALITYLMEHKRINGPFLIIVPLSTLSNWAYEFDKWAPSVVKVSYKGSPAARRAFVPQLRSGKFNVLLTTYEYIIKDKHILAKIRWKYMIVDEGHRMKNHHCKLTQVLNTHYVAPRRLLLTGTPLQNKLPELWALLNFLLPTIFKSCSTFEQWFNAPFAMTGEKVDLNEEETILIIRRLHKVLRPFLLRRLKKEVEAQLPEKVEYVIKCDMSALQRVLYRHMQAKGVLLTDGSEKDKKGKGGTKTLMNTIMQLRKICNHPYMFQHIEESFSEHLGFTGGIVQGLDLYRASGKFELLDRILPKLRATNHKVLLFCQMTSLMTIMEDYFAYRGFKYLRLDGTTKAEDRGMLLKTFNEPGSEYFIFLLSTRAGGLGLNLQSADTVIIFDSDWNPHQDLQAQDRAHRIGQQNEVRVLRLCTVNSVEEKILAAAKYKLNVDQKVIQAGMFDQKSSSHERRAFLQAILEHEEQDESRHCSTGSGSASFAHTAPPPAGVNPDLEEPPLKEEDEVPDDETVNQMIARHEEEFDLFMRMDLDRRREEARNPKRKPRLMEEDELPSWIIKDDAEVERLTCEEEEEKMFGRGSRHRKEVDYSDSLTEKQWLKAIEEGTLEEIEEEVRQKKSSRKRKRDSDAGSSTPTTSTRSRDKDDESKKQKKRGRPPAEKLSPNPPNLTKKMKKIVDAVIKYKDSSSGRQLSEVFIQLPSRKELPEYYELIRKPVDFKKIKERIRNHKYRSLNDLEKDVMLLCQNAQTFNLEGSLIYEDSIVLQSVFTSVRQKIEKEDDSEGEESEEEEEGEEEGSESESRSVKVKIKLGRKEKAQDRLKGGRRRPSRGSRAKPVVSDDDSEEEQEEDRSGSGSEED

| Compound | DC50 [1] [nM] | Dmax [1] [%] | DC50 [2] [nM] | DC50 ([2]; given as a number) [nM] | BRM HiBit Degradation Maximum (%) [2] |
| --- | --- | --- | --- | --- | --- |
| Cc1ncsc1-c1ccc([C@H](C)NC(=O)[C@@H]2C[C@@H](O)CN2C(=O)[C@H](c2cc(-c3cnc(N4CC[C@@H](c5ccc6cc(-c7ccccc7O)nnc6c5)C4)nc3)no2)C(C)C)cc1 [Compound 19] |  | < 50 | > 100 |  | B (“B” indicates maximum degradation ≥50%) |
| Cc1ncsc1-c1ccc([C@H](C)NC(=O)[C@@H]2C[C@@H](O)CN2C(=O)[C@H](c2cc(-c3cnc(N4CC[C@H](c5ccc6cc(-c7ccccc7O)nnc6c5)C4)nc3)no2)C(C)C)cc1 [Compound 21] |  | < 50 |  |  | C (“C” indicates maximum degradation <50%) |
| Cc1ncsc1-c1ccc([C@H](C)NC(=O)[C@@H]2C[C@@H](O)CN2C(=O)[C@H](c2cc(N3CCC4(CC3)CC(c3ccc5cc(-c6ccccc6O)nnc5c3)C4)no2)C(C)C)cc1 [Compound 25] |  | < 50 | > 100 |  | B (“B” indicates maximum degradation ≥50%) |
| Cc1ncsc1-c1ccc([C@H](C)NC(=O)[C@@H]2C[C@@H](O)CN2C(=O)[C@H](c2cc(-c3cnc(N4CC(c5cc(F)c6cc(-c7ccccc7O)nnc6c5)C4)nc3)no2)C(C)C)cc1 [Compound 27] |  | < 50 | > 100 |  | A (“A” indicates maximum degradation ≥75%) |
| Cc1ncsc1-c1ccc([C@H](C)NC(=O)[C@@H]2C[C@@H](O)CN2C(=O)[C@H](c2cc(-c3cnc(N4CC(c5cc6cc(-c7ccccc7O)nnc6cc5Cl)C4)nc3)no2)C(C)C)cc1 [Compound 29] |  | < 50 | > 100 |  | A (“A” indicates maximum degradation ≥75%) |
| Cc1ncsc1-c1ccc([C@H](C)NC(=O)[C@@H]2C[C@@H](O)CN2C(=O)[C@H](c2cc(-c3cnc(N4CC(c5cc6nnc(-c7ccccc7O)cc6cc5Cl)C4)nc3)no2)C(C)C)cc1 [Compound 31] |  | < 50 |  | 243 | A (“A” indicates maximum degradation ≥75%) |
| Cc1ncsc1-c1ccc([C@H](C)NC(=O)[C@@H]2C[C@@H](O)CN2C(=O)[C@H](c2cc(N3CC4(CC(c5ccc6cc(-c7ccccc7O)nnc6c5)C4)C3)no2)C(C)C)cc1 [Compound 33] |  | < 50 | > 100 |  | A (“A” indicates maximum degradation ≥75%) |
| Cc1ncsc1-c1ccc([C@H](C)NC(=O)[C@@H]2C[C@@H](O)CN2C(=O)[C@H](c2cc(-c3cnc(N4CC(c5cc(Cl)c6cc(-c7ccccc7O)nnc6c5)C4)nc3)no2)C(C)C)cc1 [Compound 35] |  | < 50 | > 100 |  | B (“B” indicates maximum degradation ≥50%) |
| Cc1ncsc1-c1ccc([C@H](C)NC(=O)[C@@H]2C[C@@H](O)CN2C(=O)[C@H](c2cc(-c3ccnc(N4CCC(c5ccc6nnc(-c7ccccc7O)cc6c5)CC4)n3)no2)C(C)C)cc1 [Compound 37] |  | < 50 |  |  | C (“C” indicates maximum degradation <50%) |
| Cc1ncsc1-c1ccc([C@H](C)NC(=O)[C@@H]2C[C@@H](O)CN2C(=O)[C@@H](c2cc(-c3ccnc(N4CCC(c5ccc6nnc(-c7ccccc7O)cc6c5)CC4)n3)no2)C(C)C)cc1 [Compound 38] |  | < 50 | > 100 |  | A (“A” indicates maximum degradation ≥75%) |
| Cc1ncsc1-c1ccc([C@H](C)NC(=O)[C@@H]2C[C@@H](O)CN2C(=O)[C@H](c2cc(-c3cnc(N4CCN(c5ccc6cc(-c7ccccc7O)nnc6c5)CC4)nc3)no2)C(C)C)cc1 [Compound 39] |  | < 50 |  |  | C (“C” indicates maximum degradation <50%) |
| Cc1ncsc1-c1ccc([C@H](C)NC(=O)[C@@H]2C[C@@H](O)CN2C(=O)[C@H](c2cc(-c3cnc(N4CCC(c5ccc6nnc(-c7ccccc7O)cc6c5)CC4)nc3)no2)C(C)C)cc1 [Compound 41] |  | < 50 |  |  | C (“C” indicates maximum degradation <50%) |

More lines, main results first:

| DC50 [1] [nM] | Dmax [1] [%] | DC50 [2] [nM] | DC50 ([2]; given as a number) [nM] | Compound | BRM HiBit Degradation Maximum (%) [2] |
| --- | --- | --- | --- | --- | --- |
| > 10 | > 50 | < 10 |  | Cc1ncsc1-c1ccc([C@H](C)NC(=O)[C@@H]2C[C@@H](O)CN2C(=O)[C@@H](c2cc(-c3cnc(N4CC5(CC(c6ccc7cc(-c8ccccc8O)nnc7c6)C5)C4)nc3)no2)C(C)C)cc1 [Compound 18] | A (“A” indicates maximum degradation ≥75%) |
|  | < 50 | < 10 |  | Cc1ncsc1-c1ccc([C@H](C)NC(=O)[C@@H]2C[C@@H](O)CN2C(=O)[C@@H](c2cc(-c3cnc(N4CC[C@@H](c5ccc6cc(-c7ccccc7O)nnc6c5)C4)nc3)no2)C(C)C)cc1 [Compound 20] | A (“A” indicates maximum degradation ≥75%) |
| < 10 | > 75 | < 10 |  | Cc1ncsc1-c1ccc([C@H](C)NC(=O)[C@@H]2C[C@@H](O)CN2C(=O)[C@@H](c2cc(-c3cnc(N4CC[C@H](c5ccc6cc(-c7ccccc7O)nnc6c5)C4)nc3)no2)C(C)C)cc1 [Compound 22] | A (“A” indicates maximum degradation ≥75%) |
|  | < 50 | > 10 |  | COc1cc2nnc(-c3ccccc3O)cc2cc1C1CN(c2ncc(-c3cc([C@@H](C(=O)N4C[C@H](O)C[C@H]4C(=O)N[C@@H](C)c4ccc(-c5scnc5C)cc4)C(C)C)on3)cn2)C1 [Compound 23] | A (“A” indicates maximum degradation ≥75%) |
| < 10 | > 75 | < 10 |  | COc1cc2nnc(-c3ccccc3O)cc2cc1C1CN(c2ncc(-c3cc([C@H](C(=O)N4C[C@H](O)C[C@H]4C(=O)N[C@@H](C)c4ccc(-c5scnc5C)cc4)C(C)C)on3)cn2)C1 [Compound 24] | A (“A” indicates maximum degradation ≥75%) |
| > 10 | > 75 | < 10 |  | Cc1ncsc1-c1ccc([C@H](C)NC(=O)[C@@H]2C[C@@H](O)CN2C(=O)[C@@H](c2cc(N3CCC4(CC3)CC(c3ccc5cc(-c6ccccc6O)nnc5c3)C4)no2)C(C)C)cc1 [Compound 26] | A (“A” indicates maximum degradation ≥75%) |
|  | < 50 | > 10 |  | Cc1ncsc1-c1ccc([C@H](C)NC(=O)[C@@H]2C[C@@H](O)CN2C(=O)[C@@H](c2cc(-c3cnc(N4CC(c5cc(F)c6cc(-c7ccccc7O)nnc6c5)C4)nc3)no2)C(C)C)cc1 [Compound 28] | A (“A” indicates maximum degradation ≥75%) |
| > 10 | > 75 | < 10 |  | Cc1ncsc1-c1ccc([C@H](C)NC(=O)[C@@H]2C[C@@H](O)CN2C(=O)[C@@H](c2cc(-c3cnc(N4CC(c5cc6cc(-c7ccccc7O)nnc6cc5Cl)C4)nc3)no2)C(C)C)cc1 [Compound 30] | A (“A” indicates maximum degradation ≥75%) |
|  | < 50 | > 10 |  | Cc1ncsc1-c1ccc([C@H](C)NC(=O)[C@@H]2C[C@@H](O)CN2C(=O)[C@@H](c2cc(-c3cnc(N4CC(c5cc6nnc(-c7ccccc7O)cc6cc5Cl)C4)nc3)no2)C(C)C)cc1 [Compound 32] | B (“B” indicates maximum degradation ≥50%) |
| > 10 | > 75 | < 10 |  | Cc1ncsc1-c1ccc([C@H](C)NC(=O)[C@@H]2C[C@@H](O)CN2C(=O)[C@@H](c2cc(N3CC4(CC(c5ccc6cc(-c7ccccc7O)nnc6c5)C4)C3)no2)C(C)C)cc1 [Compound 34] | A (“A” indicates maximum degradation ≥75%) |
|  | < 50 | > 10 |  | Cc1ncsc1-c1ccc([C@H](C)NC(=O)[C@@H]2C[C@@H](O)CN2C(=O)[C@@H](c2cc(-c3cnc(N4CC(c5cc(Cl)c6cc(-c7ccccc7O)nnc6c5)C4)nc3)no2)C(C)C)cc1 [Compound 36] | B (“B” indicates maximum degradation ≥50%) |
|  | < 50 | < 10 |  | Cc1ncsc1-c1ccc([C@H](C)NC(=O)[C@@H]2C[C@@H](O)CN2C(=O)[C@@H](c2cc(-c3cnc(N4CCN(c5ccc6cc(-c7ccccc7O)nnc6c5)CC4)nc3)no2)C(C)C)cc1 [Compound 40] | A (“A” indicates maximum degradation ≥75%) |
